US9409864B2, “Sulfonamide TRPA1 receptor antagonists” (ARIO PHARMA LIMITED, priority 2013, dated 2016)

Target: T1, native human TRPA1 receptors (Homo sapiens, UniProt O75762)
T1 construct: stably expressing native human TRPA1 receptors were used; endogenous in cells; host or cells: A549 human lung adenocarcinoma epithelial cell line
Assay: PF-4840154 (1 μM)-induced Ca2+ fluorescence measurements in A549 cell line
Assay type: cell-based
Details: for inhibition at 10 µM: 10 μM compound against 1 μM PF-4840154, A549 cells; for IC50: A549 cells
Experimental: PF-4840154 (1 μM)-Induced Ca^2+ Fluorescence Measurements in A549 Cell Line
Human lung adenocarcinoma epithelial cell line (A549) stably expressing native human TRPA1 receptors were used. The cells were cultured in medium consisting of Eagle's minimal essential medium (EMEM) supplemented with 10% fetal bovine serum (FBS), penicillin (100 IU/ml), streptomycin ([…]), L-glutamine (2 mM), sodium bicarbonate (2.5 g/L) and HEPES (24 mM). Cells were kept at 37° C. in 5% CO2/humidified air. For the experiments the cells were seeded at a density of 16,000 cells/well into 96-well black, clear-bottom plates. After 24 hours incubation the cells were loaded with medium supplemented with 2.5 mM probenecid, 3 μM of the calcium sensitive fluorescent dye Fluo-4 AM and 0.01% pluronic acid, for 30 min at 37° C. Afterwards the loading solution was aspirated and 100 μl/well of assay buffer: Hank's Balanced Salt Solution (HBSS) supplemented with 2.5 mM probenecid and 500 μM Brilliant Black (Aldrich) was added. Stock solutions (100 mM) of ligands were made in Dimethyl Sulfoxide (DMSO) and stored at −20° C. Serial dilutions of ligands for experimental use were made in HBSS buffer. After placing both plates (cell culture and compound plate) into the FlexStation II (Molecular Device, Union City, Calif. 94587, US), fluorescence changes were measured. On-line additions were carried out in a volume of […]. To facilitate drug diffusion into the wells in antagonist type experiments, the studies were performed at 36.5° C. and three cycles of mixing (25 μl from each well moved up and down 3 times) were performed immediately after antagonist injection to the wells. All exemplified compounds were tested alone (to address residual agonistic activity) and against 1 μM of PF-4840154 to address inhibitory activity at the initial concentration of 10 μM. For selected examples the entire inhibitory concentration-response curves were constructed and the IC50 value calculated.
PF-4840154 (1 μM) increased [Ca^2+] in the vast majority (95%) of cultured cells which were thereby identified as TRPA1 expressing cells.

[1] = against PF-4840154 (1 μM)-evoked [Ca2+]i mobilization

T1 sequence (O75762 whole entry): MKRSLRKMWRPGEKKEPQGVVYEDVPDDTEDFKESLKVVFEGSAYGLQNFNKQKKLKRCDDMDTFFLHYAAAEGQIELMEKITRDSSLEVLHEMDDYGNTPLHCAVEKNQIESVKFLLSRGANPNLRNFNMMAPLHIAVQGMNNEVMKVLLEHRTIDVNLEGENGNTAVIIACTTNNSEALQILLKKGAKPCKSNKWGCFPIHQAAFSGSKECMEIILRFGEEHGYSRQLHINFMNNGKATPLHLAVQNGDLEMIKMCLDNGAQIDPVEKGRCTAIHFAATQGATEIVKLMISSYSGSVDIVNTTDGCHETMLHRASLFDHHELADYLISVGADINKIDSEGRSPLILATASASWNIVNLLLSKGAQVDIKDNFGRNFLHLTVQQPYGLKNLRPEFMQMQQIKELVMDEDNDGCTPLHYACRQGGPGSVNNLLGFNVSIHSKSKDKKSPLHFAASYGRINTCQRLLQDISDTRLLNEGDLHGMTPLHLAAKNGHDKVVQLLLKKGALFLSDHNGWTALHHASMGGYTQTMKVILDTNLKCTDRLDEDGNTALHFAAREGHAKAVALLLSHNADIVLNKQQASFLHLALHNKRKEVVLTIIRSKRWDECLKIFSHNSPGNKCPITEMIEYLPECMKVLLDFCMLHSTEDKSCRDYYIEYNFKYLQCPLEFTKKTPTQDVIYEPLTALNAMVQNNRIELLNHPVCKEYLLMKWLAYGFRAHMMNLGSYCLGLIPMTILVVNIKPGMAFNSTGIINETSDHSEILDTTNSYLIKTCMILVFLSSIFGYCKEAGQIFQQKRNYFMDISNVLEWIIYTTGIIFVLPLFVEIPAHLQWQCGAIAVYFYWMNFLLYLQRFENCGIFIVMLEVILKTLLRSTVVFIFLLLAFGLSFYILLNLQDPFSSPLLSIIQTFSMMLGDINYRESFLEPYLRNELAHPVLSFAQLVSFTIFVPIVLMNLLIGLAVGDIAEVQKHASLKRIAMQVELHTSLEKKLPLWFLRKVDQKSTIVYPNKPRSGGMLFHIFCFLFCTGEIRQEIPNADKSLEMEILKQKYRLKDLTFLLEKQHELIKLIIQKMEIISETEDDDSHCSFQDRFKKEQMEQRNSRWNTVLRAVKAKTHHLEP

An inhibition at 10 µM of 100% and an IC50 [1] of 0.076 µM were found for `C=C(C(=O)NCc1cccc(-c2ccc(C(F)(F)F)cc2)c1)N(CC)S(=O)(=O)c1ccc(F)cc1` [Example 8, 2-[ethyl-(4-fluorophenyl)sulfonyl-amino]-N-[[3-[4-(trifluoromethyl)phenyl]phenyl]methyl]prop-2-enamide] in this work.

An inhibition at 10 µM of 95% and an IC50 [1] of 0.093 µM were found for `C=C(C(=O)NCc1ccnc(-c2ccc(OC(F)(F)F)cc2)c1)N(CC)S(=O)(=O)c1ccc(F)cc1` [Example 3, 2-[(4-fluorophenyl)sulfonyl-ethyl-amino]-N-[[2-[4-(trifluoromethoxy)phenyl]-4-pyridyl]methyl]prop-2-enamide] in this work.

An inhibition at 10 µM of 100% and an IC50 [1] of 0.327 µM were found for `CCN(C1(C(=O)NCc2cc(-c3ccc(C(F)(F)F)cc3)nc(N3CCN(CC4CC4)CC3)c2)CC1)S(=O)(=O)c1ccc(Cl)s1` [Example 65, 1-[(5-chloro-2-thienyl)sulfonyl-ethyl-amino]-N-[[2-[4-(cyclopropylmethyl)piperazin-1-yl]-6-[4-(trifluoromethyl)phenyl]-4-pyridyl]methyl]cyclopropanecarboxamide] in this work.

An inhibition at 10 µM of 95% and an IC50 [1] of 0.59 µM were found for `CCN(C1(C(=O)NCc2cc(-c3ccc(C(F)(F)F)cc3)nc(N3CCN(C4CCCCC4)CC3)c2)CC1)S(=O)(=O)c1ccc(Cl)s1` [Example 67, 1-[(5-chloro-2-thienyl)sulfonyl-ethyl-amino]-N-[[2-(4-cyclohexylpiperazin-1-yl)-6-[4-(trifluoromethyl)phenyl]-4-pyridyl]methyl]cyclopropanecarboxamide] in this work.

An inhibition at 10 µM of 96% and an IC50 [1] of 0.113 µM were found for `CCN(C1(C(=O)NCc2cccc(-c3ccc(OC(F)(F)F)cc3)c2)CC1)S(=O)(=O)c1ccc(Cl)s1` [Example 47, 1-[(5-chloro-2-thienyl)sulfonyl-ethyl-amino]-N-[[3-[4-(trifluoromethoxy)phenyl]phenyl]methyl]cyclopropanecarboxamide] in this work.

An inhibition at 10 µM of 96% and an IC50 [1] of 0.26 µM were found for `CCN(C1(C(=O)NCc2cc(OC)nc(-c3ccc(C(F)(F)F)cc3)c2)CC1)S(=O)(=O)c1ccc(F)cc1` [Example 48, 1-[ethyl-(4-fluorophenyl)sulfonyl-amino]-N-[[2-methoxy-6-[4-(trifluoromethyl)phenyl]-4-pyridyl]methyl]cyclopropanecarboxamide] in this work.

An inhibition at 10 µM of 99% and an IC50 [1] of 0.182 µM were found for `C=C(C(=O)NCc1cc(-c2ccc(C(F)(F)F)cc2)nc(N2CCCC2)c1)N(C)S(=O)(=O)c1ccc(Cl)cc1` [Example 13, 2-[(4-chlorophenyl)sulfonyl-methyl-amino]-N-[[2-pyrrolidin-1-yl-6-[4-(trifluoromethyl)phenyl]-4-pyridyl]methyl]prop-2-enamide] in this work.

An inhibition at 10 µM of 47% and an IC50 (against PF-4840154 (1 μM), cells printed in μM) greater than 10 µM were found for `C=C(C(=O)NCc1cc[n+]([O-])c(-c2ccc(C(F)(F)F)cc2)c1)N(CC)S(=O)(=O)c1ccc(F)cc1` [Example 54, 2-[ethyl-(4-fluorophenyl)sulfonyl-amino]-N-[[1-oxido-2-[4-(trifluoromethyl)phenyl]pyridin-1-ium-4-yl]methyl]prop-2-enamide] in this work.

An inhibition at 10 µM of 98% and an IC50 [1] of 0.12 µM were found for `C=C(C(=O)NCc1cc(-c2ccc(OC(F)(F)F)cc2)nc(N2CCOCC2)c1)N(CC)S(=O)(=O)c1ccc(Cl)cc1` [Example 17, 2-[(4-chlorophenyl)sulfonyl-ethyl-amino]-N-[[2-morpholino-6-[4-(trifluoromethoxy)phenyl]-4-pyridyl]methyl]prop-2-enamide] in this work.

An inhibition at 10 µM of 100% and an IC50 [1] of 0.323 µM were found for `C/C=C(/C(=O)NCc1ccnc(-c2ccc(OC(F)(F)F)cc2)c1)N(C)S(=O)(=O)c1ccc(F)cc1` [Example 21, (Z)-2-[(4-fluorophenyl)sulfonyl-methyl-amino]-N-[[2-[4-(trifluoromethoxy)phenyl]-4-pyridyl]methyl]but-2-enamide] in this work.
